Experimental data published in ChEMBL document CHEMBL1149956, “Synthesis and biological evaluation of new 5-HPETE analogs” (Bioorg Med Chem Lett, 1994).
Active and inactive are the calls of the source. The calls are words filed in the database; no cut-off is given here.

Legend:
[1] = molecular target: T1, Polyunsaturated fatty acid 5-lipoxygenase (Homo sapiens) (UniProt P09917); test: Tested for the inhibition of 5-lipoxygenase from human polymorphonuclear leukocytes(PMN) at 10 uM concentration of the compound; value ranges from 70-90
T1 sequence (whole entry): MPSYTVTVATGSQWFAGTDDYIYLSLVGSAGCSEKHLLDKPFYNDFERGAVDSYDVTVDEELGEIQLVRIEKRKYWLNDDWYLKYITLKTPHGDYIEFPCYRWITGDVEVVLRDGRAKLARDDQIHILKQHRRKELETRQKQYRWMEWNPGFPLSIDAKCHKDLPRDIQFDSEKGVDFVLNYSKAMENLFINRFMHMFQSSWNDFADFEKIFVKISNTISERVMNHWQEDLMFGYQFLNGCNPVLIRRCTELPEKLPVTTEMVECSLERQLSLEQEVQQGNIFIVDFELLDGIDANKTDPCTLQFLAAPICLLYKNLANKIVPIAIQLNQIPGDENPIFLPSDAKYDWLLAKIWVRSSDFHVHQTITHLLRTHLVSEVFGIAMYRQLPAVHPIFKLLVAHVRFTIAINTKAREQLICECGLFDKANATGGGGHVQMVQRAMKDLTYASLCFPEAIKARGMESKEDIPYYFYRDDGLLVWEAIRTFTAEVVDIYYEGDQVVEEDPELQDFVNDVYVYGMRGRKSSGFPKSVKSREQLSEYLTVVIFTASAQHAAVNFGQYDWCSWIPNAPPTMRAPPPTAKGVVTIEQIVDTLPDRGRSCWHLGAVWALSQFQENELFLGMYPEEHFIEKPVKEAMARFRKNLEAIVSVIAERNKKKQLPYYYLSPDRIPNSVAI

[2] = molecular target: T1, Polyunsaturated fatty acid 5-lipoxygenase (Homo sapiens); test: Tested for the inhibition of 5-lipoxygenase from human polymorphonuclear leukocytes(PMN) at 10 uM concentration of the compound; IA= Inactive

inhibition [1] [%] | inhibition [2] | SMILES
– | inactive | CCCCC/C=C\C/C=C\C/C=C\C=C\C1CC(CC(=O)OC)=NO1 (stereo not given)
70 | – | CCCCC/C=C\C/C=C\C/C=C\C=C\c1cc(CC(=O)OC)no1

Continued, compound first:

SMILES | inhibition [1] [%] | inhibition [2]
CCCCCCCCCCC/C=C\C=C\C1CC(CC(=O)OC)=NO1 (stereo not given) | 70 | –
CCCCCCCCCCC/C=C\C=C\c1cc(C/C=N/O)no1 | – | inactive
CCCCCCCCCCC/C=C\C=C\c1cc(CC(=O)OC)no1 | 70 | –
